Key:
Format in all cases: cell-based, human
IGROV1 = assay: NCI 60 panel five-dose growth inhibition, Ovarian Cancer; conditions: for GI50: Homo sapiens, IGROV-1
CAKI-1 = assay: NCI 60 panel five-dose growth inhibition, Renal Cancer; conditions: CAKI-1, Renal Cancer; for GI50: Homo sapiens
ACHN = assay: as above; conditions: for GI50: Homo sapiens
SF-539 = assay: NCI 60 panel five-dose growth inhibition, CNS Cancer; conditions: for GI50: Homo sapiens
A549/ATCC = assay: NCI 60 panel five-dose growth inhibition, Non-Small Cell Lung Cancer; conditions: for GI50: Homo sapiens
UACC-62 = assay: NCI 60 panel five-dose growth inhibition, Melanoma; conditions: for GI50: Homo sapiens, UACC-62, UACC-62, Melanoma; for TGI: UACC-62, Melanoma
KM12 = assay: NCI 60 panel five-dose growth inhibition, Colon Cancer; conditions: for GI50: Homo sapiens
1-ICT-15 = assay: as above; conditions: 1-ICT-15, Colon Cancer; for GI50: Homo sapiens
MDA-MB-231/ATCC = assay: NCI 60 panel five-dose growth inhibition, Breast Cancer; conditions: for GI50: Homo sapiens
CCRF-CEM = assay: NCI 60 panel five-dose growth inhibition, Leukemia; conditions: for GI50: Homo sapiens
786-0 = assay: NCI 60 panel five-dose growth inhibition, Renal Cancer; conditions: 786-0, Renal Cancer; for GI50: Homo sapiens
5K-MEL-5 = assay: NCI 60 panel five-dose growth inhibition, Melanoma; conditions: 5K-MEL-5, Melanoma; for GI50: Homo sapiens
MDA-MB-468 = assay: NCI 60 panel five-dose growth inhibition, Breast Cancer; conditions: MDA-MB-468, Breast Cancer; for GI50: Homo sapiens
U0-31 = assay: NCI 60 panel five-dose growth inhibition, Renal Cancer; conditions: U0-31, Renal Cancer; for GI50: Homo sapiens
HOP-92 = assay: NCI 60 panel five-dose growth inhibition, Non-Small Cell Lung Cancer; conditions: HOP-92, Non-Small Cell Lung Cancer; for GI50: Homo sapiens
M14 = assay: NCI 60 panel five-dose growth inhibition, Melanoma; conditions: for GI50: Homo sapiens
HCT-116 = assay: NCI 60 panel five-dose growth inhibition, Colon Cancer; conditions: HCT-116, Colon Cancer; for GI50: Homo sapiens
COLO 205 = assay: as above; conditions: COLO 205, Colon Cancer; for GI50: Homo sapiens
SF-268 = assay: NCI 60 panel five-dose growth inhibition, CNS Cancer; conditions: SF-268, CNS Cancer; for GI50: Homo sapiens
MOLT-4 = assay: NCI 60 panel five-dose growth inhibition, Leukemia; conditions: MOLT-4, Leukemia; for GI50: Homo sapiens
SW-620 = assay: NCI 60 panel five-dose growth inhibition, Colon Cancer; conditions: SW-620, Colon Cancer; for GI50: Homo sapiens
SNB-75 = assay: NCI 60 panel five-dose growth inhibition, CNS Cancer; conditions: SNB-75, CNS Cancer; for GI50: Homo sapiens
SNB-19 = assay: as above; conditions: SNB-19, CNS Cancer; for GI50: Homo sapiens
MDA-MB-435 = assay: NCI 60 panel five-dose growth inhibition, Melanoma; conditions: for GI50: Homo sapiens
SR = assay: NCI 60 panel five-dose growth inhibition, Leukemia; conditions: for GI50: Homo sapiens
DU-145 = assay: NCI 60 panel five-dose growth inhibition, Prostate Cancer; conditions: DU-145, Prostate Cancer; for GI50: Homo sapiens
MCF7 = assay: NCI 60 panel five-dose growth inhibition, Breast Cancer; conditions: for GI50: Homo sapiens
NCI-H460 = assay: NCI 60 panel five-dose growth inhibition, Non-Small Cell Lung Cancer; conditions: for GI50: Homo sapiens
HT29 = assay: NCI 60 panel five-dose growth inhibition, Colon Cancer; conditions: for GI50: Homo sapiens, HT-29
HOP-62 = assay: NCI 60 panel five-dose growth inhibition, Non-Small Cell Lung Cancer; conditions: HOP-62, Non-Small Cell Lung Cancer; for GI50: Homo sapiens
HCC-2998 = assay: NCI 60 panel five-dose growth inhibition, Colon Cancer; conditions: HCC-2998, Colon Cancer; for GI50: Homo sapiens
SK-OV-3 = assay: NCI 60 panel five-dose growth inhibition, Ovarian Cancer; conditions: SK-OV-3, Ovarian Cancer; for GI50: Homo sapiens
NCI-H23 = assay: NCI 60 panel five-dose growth inhibition, Non-Small Cell Lung Cancer; conditions: for GI50: Homo sapiens
NCI/ADR-RES = assay: NCI 60 panel five-dose growth inhibition, Ovarian Cancer; conditions: for GI50: Homo sapiens
PC-3 = assay: NCI 60 panel five-dose growth inhibition, Prostate Cancer; conditions: PC-3, Prostate Cancer; for GI50: Homo sapiens
OVCAR-4 = assay: NCI 60 panel five-dose growth inhibition, Ovarian Cancer; conditions: OVCAR-4, Ovarian Cancer
SK-MEL-28 = assay: NCI 60 panel five-dose growth inhibition, Melanoma; conditions: SK-MEL-28, Melanoma

For `COc1cc(-c2n[nH]nc2-c2ccc3ccccc3n2)cc(OC)c1OC` [Example 4, 2-(5-(3,4,5-trimethoxyphenyl)-2H-1,2,3-triazol-4-yl)quinoline], the TGI (IGROV1) was >100000 nM, the GI50 (IGROV1) was 50.9 nM and the TGI (CAKI-1) was >100000 nM. For the same compound, the GI50 (CAKI-1) was 50.2 nM, the TGI (ACHN) was >100000 nM and the GI50 (ACHN) was 145 nM. For the same compound, the GI50 (SF-539; SF-539, CNS Cancer) was 13.8 nM, the TGI (SF-539; SF-539, CNS Cancer) was 40 nM and the TGI (A549/ATCC) was >100000 nM. The GI50 (A549/ATCC) was 37.4 nM, the GI50 (UACC-62) was < 10 nM and the TGI (UACC-62) was >100000 nM. The TGI (KM12) was 23800 nM, the GI50 (KM12) was 29.8 nM and the TGI (1-ICT-15) was 5130 nM. For the same compound, the GI50 (1-ICT-15) was < 10 nM, the TGI (MDA-MB-231/ATCC) was >100000 nM and the GI50 (MDA-MB-231/ATCC) was 46 nM. The TGI (CCRF-CEM) was 21800 nM, the GI50 (CCRF-CEM) was 31.9 nM and the TGI (786-0) was >100000 nM. The GI50 (786-0) was 15.3 nM, the TGI (5K-MEL-5) was 320 nM and the GI50 (5K-MEL-5) was 26.7 nM. For the same compound, the GI50 (MDA-MB-468) was 23.3 nM, the TGI (MDA-MB-468) was 80 nM and the GI50 (U0-31) was 20 nM. For the same compound, the TGI (U0-31) was >100000 nM, the TGI (HOP-92) was 2670 nM and the GI50 (HOP-92) was < 10 nM. The TGI (M14) was >100000 nM, the GI50 (M14) was < 10 nM and the TGI (HCT-116) was 1470 nM. For the same compound, the GI50 (HCT-116) was < 10 nM, the TGI (COLO 205) was 640 nM and the GI50 (COLO 205) was 149 nM. For the same compound, the GI50 (SF-268) was 177 nM, the TGI (SF-268) was >100000 nM and the GI50 (MOLT-4) was 48.2 nM. For the same compound, the TGI (MOLT-4) was 20000 nM, the GI50 (SW-620) was 29.5 nM and the TGI (SW-620) was >100000 nM. For the same compound, the GI50 (SNB-75) was 14.2 nM, the TGI (SNB-75) was >100000 nM and the GI50 (SNB-19) was 36.9 nM. For the same compound, the TGI (SNB-19) was >100000 nM, the GI50 (MDA-MB-435; MDA-MB-435, Melanoma) was < 10 nM and the TGI (MDA-MB-435; MDA-MB-435, Melanoma) was 10 nM. The “sensitivity to the growth inhibitory effects” value (MDA-MB-435; MDA-MB-435, in words) was “sensitive”, the TGI (SR) was 16900 nM and the GI50 (SR) was < 10 nM. For the same compound, the TGI (DU-145) was >100000 nM, the GI50 (DU-145) was 44.8 nM and the TGI (MCF7) was >100000 nM. The GI50 (MCF7) was 24.5 nM, the TGI (NCI-H460) was >100000 nM and the GI50 (NCI-H460) was 34.2 nM. The TGI (HT29) was 20500 nM, the GI50 (HT29) was 47.6 nM and the TGI (HOP-62) was >100000 nM. The GI50 (HOP-62) was 25 nM, the TGI (HCC-2998) was 11400 nM and the GI50 (HCC-2998) was 45.9 nM. For the same compound, the GI50 (SK-OV-3) was 45.8 nM, the TGI (SK-OV-3) was >100000 nM and the TGI (NCI-H23) was 27900 nM. The GI50 (NCI-H23) was 37.7 nM, the TGI (NCI/ADR-RES) was 80 nM and the GI50 (NCI/ADR-RES) was < 10 nM. The GI50 (PC-3) was 41.5 nM, the TGI (PC-3) was >100000 nM and the TGI (OVCAR-4) was >100000 nM.

`COc1ccc(-c2n[nH]nc2-c2cc(OC)cc(OC)c2)cc1` [Example 5, 4-(3,5-dimethoxyphenyl)-5-(4-methoxyphenyl)-2H-1,2,3-triazole] was tested, and the TGI (IGROV1) was 21500 nM, the GI50 (IGROV1) was < 10 nM and the TGI (SK-MEL-28) was 60700 nM. For the same compound, the TGI (CAKI-1) was >100000 nM, the GI50 (CAKI-1) was < 10 nM and the TGI (ACHN) was 62500 nM. For the same compound, the GI50 (ACHN) was < 10 nM, the GI50 (SF-539; SF-539, CNS Cancer) was < 10 nM and the TGI (SF-539; SF-539, CNS Cancer) was <10 nM. The TGI (SF-539; SF-539, as stated in text) was “less than 10 nM”, the TGI (A549/ATCC) was 73400 nM and the GI50 (A549/ATCC) was < 10 nM. For the same compound, the GI50 (UACC-62) was > 1000 nM, the TGI (UACC-62) was >100000 nM and the TGI (KM12) was 50 nM. For the same compound, the GI50 (KM12) was < 10 nM, the TGI (1-ICT-15) was >100000 nM and the GI50 (1-ICT-15) was < 10 nM. The TGI (MDA-MB-231/ATCC) was >100000 nM, the GI50 (MDA-MB-231/ATCC) was < 10 nM and the TGI (CCRF-CEM) was 46300 nM. For the same compound, the GI50 (CCRF-CEM) was < 10 nM, the TGI (786-0) was 19400 nM and the GI50 (786-0) was < 10 nM. The TGI (5K-MEL-5) was 20 nM, the GI50 (5K-MEL-5) was < 10 nM and the GI50 (MDA-MB-468) was < 10 nM. The TGI (MDA-MB-468) was 22400 nM, the GI50 (U0-31) was < 10 nM and the TGI (U0-31) was 25100 nM. For the same compound, the TGI (HOP-92) was 80 nM, the GI50 (HOP-92) was < 10 nM and the TGI (M14) was 23000 nM. For the same compound, the GI50 (M14) was < 10 nM, the TGI (HCT-116) was >100000 nM and the GI50 (HCT-116) was < 10 nM. For the same compound, the TGI (COLO 205) was 120 nM, the GI50 (COLO 205) was 29.2 nM and the GI50 (SF-268) was < 10 nM. For the same compound, the TGI (SF-268) was 90000 nM, the GI50 (MOLT-4) was 12 nM and the TGI (MOLT-4) was 16100 nM. For the same compound, the GI50 (SW-620) was < 10 nM, the TGI (SW-620) was >100000 nM and the GI50 (SNB-75) was < 10 nM. For the same compound, the GI50 (SNB-19) was < 10 nM, the TGI (SNB-19) was >100000 nM and the GI50 (MDA-MB-435; MDA-MB-435, Melanoma) was < 10 nM. The TGI (MDA-MB-435; MDA-MB-435, Melanoma) was <10 nM, the TGI (MDA-MB-435; MDA-MB-435, as stated in text) was “less than 10 nM” and the TGI (SR) was >100000 nM. For the same compound, the GI50 (SR) was < 10 nM, the GI50 (DU-145) was < 10 nM and the TGI (MCF7) was >100000 nM. The GI50 (MCF7) was < 10 nM, the TGI (NCI-H460) was 10900 nM and the GI50 (NCI-H460) was < 10 nM. For the same compound, the TGI (HT29) was 10800 nM, the GI50 (HT29) was < 10 nM and the TGI (HOP-62) was 72400 nM. The GI50 (HOP-62) was < 10 nM, the TGI (HCC-2998) was 22400 nM and the GI50 (HCC-2998) was 24.9 nM. For the same compound, the GI50 (SK-OV-3) was < 10 nM, the TGI (SK-OV-3) was 40300 nM and the TGI (NCI-H23) was 68700 nM. For the same compound, the GI50 (NCI-H23) was < 10 nM, the TGI (NCI/ADR-RES) was 17500 nM and the GI50 (NCI/ADR-RES) was < 10 nM. For the same compound, the GI50 (PC-3) was < 10 nM, the TGI (PC-3) was 35200 nM and the GI50 (OVCAR-4; Homo sapiens) was < 10 nM. The TGI (OVCAR-4) was >100000 nM.

— patent US10239844B2, “Disubstituted triazole analogs” (BioVentures, LLC, priority 2014, dated 2019)
